The target in one assay is rat TAAR1 (Rattus norvegicus (Rat), UniProt Q923Y9). The assay is described as follows: Radioligand binding assay on rat TAAR1.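 Note: membranes from HEK293 cells stably transfected with rat TAAR1, tritiated TAAR1 radioligand, 1 h incubation at 4 °C, nonspecific binding determined with excess unlabeled ligand.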
The next assay addresses mouse TAAR1 (Mus musculus (Mouse), UniProt Q923Y8). The assay is described as follows: Radioligand binding assay on mouse TAAR1.

Some results are limits rather than exact numbers.

Chain of rat TAAR1 (Q923Y9 whole entry): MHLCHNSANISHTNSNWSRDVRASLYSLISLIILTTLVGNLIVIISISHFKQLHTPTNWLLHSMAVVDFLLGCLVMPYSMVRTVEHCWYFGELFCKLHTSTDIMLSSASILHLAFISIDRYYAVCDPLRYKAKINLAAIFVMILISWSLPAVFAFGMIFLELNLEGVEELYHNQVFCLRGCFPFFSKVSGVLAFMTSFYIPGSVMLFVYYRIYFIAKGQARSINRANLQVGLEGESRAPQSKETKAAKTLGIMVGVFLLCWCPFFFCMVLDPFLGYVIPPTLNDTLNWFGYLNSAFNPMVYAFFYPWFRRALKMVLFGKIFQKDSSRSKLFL
Chain of mouse TAAR1 (Q923Y8 whole entry): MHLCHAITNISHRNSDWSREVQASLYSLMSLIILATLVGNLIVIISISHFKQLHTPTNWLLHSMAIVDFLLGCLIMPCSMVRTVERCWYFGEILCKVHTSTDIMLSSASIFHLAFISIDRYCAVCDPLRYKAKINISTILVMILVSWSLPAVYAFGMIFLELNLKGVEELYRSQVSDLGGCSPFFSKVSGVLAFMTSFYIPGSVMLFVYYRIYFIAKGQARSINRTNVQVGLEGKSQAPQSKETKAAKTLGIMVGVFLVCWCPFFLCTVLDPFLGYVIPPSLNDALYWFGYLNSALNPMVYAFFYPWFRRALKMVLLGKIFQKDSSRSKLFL
Protocol for mouse TAAR1: Radioligand Binding Assay on Mouse TAAR1
(§1) Membrane Preparation and Radioligand Binding.
HEK-293 cells stably expressing mouse TAAR1 were maintained at 37° C. and 5% CO2 in DMEM high glucose medium, containing fetal calf serum (10%, heat inactivated for 30 min at 56° C.), penicillin/streptomycin (1%), and 375 μg/ml geneticin (Gibco). Cells were released from culture flasks using trypsin/EDTA, harvested, washed twice with ice-cold PBS (without Ca^2+ and Mg^2+), pelleted at 1'000 rpm for 5 min at 4° C., frozen and stored at −80° C. Frozen pellets were suspended in 20 ml HEPES-NaOH (20 mM, pH 7.4) containing 10 mM EDTA and homogenized with a Polytron (PT 6000, Kinematica) at 14'000 rpm for 20 s. The homogenate was centrifuged at 48'000×g for 30 min at 4° C. Subsequently, the supernatant was removed and discarded, and the pellet resuspended in 20 ml HEPES-NaOH (20 mM, pH 7.4) containing 0.1 mM EDTA using the Polytron (20 s at 14'000 rpm). This procedure was repeated and the final pellet resuspended in HEPES-NaOH containing 0.1 mM EDTA and homogenized using the Polytron. Typically, aliquots of 2 ml membrane portions were stored at −80° C. With each new membrane batch the dissociation constant (Kd) was determined via a saturation curve. The TAAR1 radioligand ^3[H]—(S)-4-[(ethyl-phenyl-amino)-methyl]-4,5-dihydro-oxazol-2-ylamine (described in WO 2008/098857) was used at a concentration equal to the calculated Kd value, that was usually around 0.7 nM, resulting in the binding of approximately 0.5% of the radioligand and a specific binding representing approximately 70% of the total binding. Nonspecific binding was defined as the amount of ^3[H]—(S)-4-[(ethyl-phenyl-amino)-methyl]-4,5-dihydro-oxazol-2-ylamine bound in the presence of 10 M unlabeled ligand. All compounds were tested at a broad range of concentrations (10 pM to 10 μM) in duplicates. […] The 96 deep well plates were incubated for 1 hr at 4° C. Incubations were terminated by rapid filtration through Unifilter-96 plates (Packard Instrument Company) and glass filters GF/C (Perkin Elmer) presoaked for 1 hr in polyethylenimine (0.3%) and washed 3 times with 1 ml of cold binding buffer. After addition of 45 μl of Microscint 40 (PerkinElmer) the Unifilter-96 plate was sealed and after 1 hr the radioactivity counted using a TopCount Microplate Scintillation Counter (Packard Instrument Company).
Protocol for rat TAAR1: as §1
HEK-293 cells stably expressing rat TAAR1 were maintained at 37° C. and 5% CO2 in DMEM high glucose medium, containing fetal calf serum (10%, heat inactivated for 30 min at 56° C.), penicillin/streptomycin (1%), and 375 μg/ml geneticin (Gibco). Cells were released from culture flasks using trypsin/EDTA, harvested, washed twice with ice-cold PBS (without Ca^2+ and Mg^2+), pelleted at 1'000 rpm for 5 min at 4° C., frozen and stored at −80° C. Frozen pellets were suspended in 20 ml HEPES-NaOH (20 mM, pH 7.4) containing 10 mM EDTA and homogenized with a Polytron (PT 6000, Kinematica) at 14′000 rpm for 20 s. The homogenate was centrifuged at 48'000×g for 30 min at 4° C. Subsequently, the supernatant was removed and discarded, and the pellet resuspended in 20 ml HEPES-NaOH (20 mM, pH 7.4) containing 0.1 mM EDTA using the Polytron (20 s at 14'000 rpm). This procedure was repeated and the final pellet resuspended in HEPES-NaOH containing 0.1 mM EDTA and homogenized using the Polytron. Typically, aliquots of 2 ml membrane portions were stored at −80° C. With each new membrane batch the dissociation constant (Kd) was determined via a saturation curve. […] Nonspecific binding was defined as the amount of 3 [H]—(S)-4-[(ethyl-phenyl-amino)-methyl]-4,5-dihydro-oxazol-2-ylamine bound in the presence of 10 M unlabeled ligand. All compounds were tested at a broad range of concentrations (10 pM to 10 μM) in duplicates. […] The 96 deep well plates were incubated for 1 hr at 4° C. Incubations were terminated by rapid filtration through Unifilter-96 plates (Packard Instrument Company) and glass filters GF/C (Perkin Elmer) presoaked for 1 hr in polyethylenimine (0.3%) and washed 3 times with 1 ml of cold binding buffer. After addition of 45 μl of Microscint 40 (PerkinElmer) the Unifilter-96 plate was sealed and after 1 hr the radioactivity counted using a TopCount Microplate Scintillation Counter (Packard Instrument Company).

In the case of `CC(C)Cc1cc(C(=O)Nc2ccc([C@@H]3O[C@H]4CN[C@@H]3C4)cc2)[nH]n1` [Example 101, 3-Isobutyl-N-[4-[(1R,3S,4R)-2-oxa-5-azabicyclo[2.2.1]heptan-3-yl]phenyl]-1H-pyrazole-5-carboxamide], the Ki is 80.7 nM on rat TAAR1 and 5.7 nM at mouse TAAR1.
The corresponding values for `CCCc1n[nH]c(C(=O)Nc2ccc([C@@H]3O[C@H]4CN[C@@H]3C4)cc2)c1Cl` [Example 68, 4-Chloro-N-[4-[(1R,3S,4R)-2-oxa-5-azabicyclo[2.2.1]heptan-3-yl]phenyl]-3-propyl-1H-pyrazole-5-carboxamide] are 17.9 nM and 3.1 nM.
For `O=C(Nc1ccc(Cl)cc1)c1ccc([C@H]2O[C@@H]3CN[C@H]2C3)cc1` [Example 55], in that order: 12.3 nM and 0.7 nM.
For `CCOc1n[nH]c(C(=O)Nc2ccc([C@H]3O[C@@H]4CN[C@H]3C4)cc2)c1Cl` [Example 45, 4-Chloro-3-ethoxy-N-[4-[(1S,3R,4S)-2-oxa-5-azabicyclo[2.2.1]heptan-3-yl]phenyl]-1H-pyrazole-5-carboxamide], in that order: 210 nM and 4.2 nM.
Consider `COCCCNc1ccc([C@H]2O[C@@H]3CN[C@H]2C3)cc1` [Example 65, N-(3-Methoxypropyl)-4-[(1S,3R,4S)-2-oxa-5-azabicyclo[2.2.1]heptan-3-yl]aniline], for which the Ki at rat TAAR1 is 70.2 nM; at mouse TAAR1, 2070 nM.
For `O=C(Nc1cccc([C@@H]2O[C@H]3CN[C@@H]2C3)c1)c1ccc(Cl)cc1` [Example 2, 4-Chloro-N-[3-[(1R,3S,4R)-2-oxa-5-azabicyclo[2.2.1]heptan-3-yl]phenyl]benzamide], in that order: 79.4 nM and 2510 nM.
The corresponding values for `CC(C)c1cc(C(=O)Nc2ccc([C@@H]3O[C@H]4CN[C@@H]3C4)cc2)[nH]n1` [Example 75, 3-Isopropyl-N-[4-[(1R,3S,4R)-2-oxa-5-azabicyclo[2.2.1]heptan-3-yl]phenyl]-1H-pyrazole-5-carboxamide] are 239 nM and 9.9 nM.
In the case of `O=C(NCc1ccc(C(F)(F)F)cc1)c1ccc([C@H]2O[C@@H]3CN[C@H]2C3)cc1` [Example 63, 4-[(1S,3R,4S)-2-Oxa-5-azabicyclo[2.2.1]heptan-3-yl]-N-[[4-(trifluoromethyl)phenyl]methyl]benzamide], the inhibition constant (Ki) turned out to be 593 nM on rat TAAR1 and 3.4 nM at mouse TAAR1.
The corresponding values for `CCc1n[nH]c(C(=O)Nc2ccc([C@@H]3O[C@H]4CN[C@@H]3C4)cc2)c1Br` [Example 99, 4-Bromo-3-ethyl-N-[4-[(1R,3S,4R)-2-oxa-5-azabicyclo[2.2.1]heptan-3-yl]phenyl]-1H-pyrazole-5-carboxamide] are 127 nM and 3.5 nM.
The corresponding values for `O=C(Nc1ccc([C@@H]2O[C@H]3CN[C@@H]2C3)cc1)c1ccnc(C(F)(F)F)n1` [Example 81, N-[4-[(1R,3S,4R)-2-Oxa-5-azabicyclo[2.2.1]heptan-3-yl]phenyl]-2-(trifluoromethyl)pyrimidine-4-carboxamide] are 189 nM and 27.1 nM.
With `Cc1cn[nH]c1C(=O)Nc1ccc([C@H]2O[C@@H]3CN[C@H]2C3)cc1` [Example 47, 4-Methyl-N-[4-[(1S,3R,4S)-2-oxa-5-azabicyclo[2.2.1]heptan-3-yl]phenyl]-1H-pyrazole-5-carboxamide], the inhibition constant (Ki) on rat TAAR1 came to 2300 nM; on mouse TAAR1, 313 nM.
Regarding `O=C(Nc1ccc(F)cc1)c1ccc([C@H]2O[C@@H]3CN[C@H]2C3)cc1` [Example 57, N-(4-Fluorophenyl)-4-[(1S,3R,4S)-2-oxa-5-azabicyclo[2.2.1]heptan-3-yl]benzamide], the inhibitory constant (Ki) on rat TAAR1 is 45.8 nM; on mouse TAAR1, 3.4 nM.
The corresponding values for `CCOc1ccc(C(=O)Nc2ccc([C@H]3O[C@@H]4CN[C@H]3C4)cc2)cc1` [Example 17, 4-Ethoxy-N-[4-[(1S,3R,4S)-2-oxa-5-azabicyclo[2.2.1]heptan-3-yl]phenyl]benzamide] are 693 nM and 6.4 nM.
For the molecule `CCOc1ccc(NC(=O)c2ccc([C@H]3O[C@@H]4CN[C@H]3C4)cc2)cc1` [Example 58, N-(4-Ethoxyphenyl)-4-[(1S,3R,4S)-2-oxa-5-azabicyclo[2.2.1]heptan-3-yl]benzamide], the inhibition constant Ki at rat TAAR1 is above 10000 nM; at mouse TAAR1, 1.3 nM.
The corresponding values for `FC(F)(F)c1ccc(Nc2ccc([C@H]3O[C@@H]4CN[C@H]3C4)cc2)nc1` [Example 19, N-[4-[(1S,3R,4S)-2-Oxa-5-azabicyclo[2.2.1]heptan-3-yl]phenyl]-5-(trifluoromethyl)pyridin-2-amine] are 64.1 nM and 7.1 nM.
For `CCc1ncc(C(=O)Nc2ccc([C@@H]3O[C@H]4CN[C@@H]3C4)cc2)cn1` [Example 74, 2-Ethyl-N-[4-[(1R,3S,4R)-2-oxa-5-azabicyclo[2.2.1]heptan-3-yl]phenyl]pyrimidine-5-carboxamide], in that order: 190 nM and 109 nM.
The corresponding values for `O=C(Nc1cccc([C@@H]2O[C@H]3CN[C@@H]2C3)c1)c1cccc(Cl)c1` [Example 1, 3-Chloro-N-[3-[(1R,3S,4R)-2-oxa-5-azabicyclo[2.2.1]heptan-3-yl]phenyl]benzamide] are 132 nM and 2990 nM.
Consider `O=C(Nc1ccc(Cl)nc1)c1ccc([C@@H]2O[C@H]3CN[C@@H]2C3)cc1` [Example 94, N-(6-Chloro-3-pyridyl)-4-[(1R,3S,4R)-2-oxa-5-azabicyclo[2.2.1]heptan-3-yl]benzamide], for which the Ki on rat TAAR1 was above 1450 nM; at mouse TAAR1, 25.1 nM.
For `FC(F)(F)c1cnc(Nc2ccc([C@H]3O[C@@H]4CN[C@H]3C4)cc2)nc1` [Example 23, N-[4-[(1S,3R,4S)-2-Oxa-5-azabicyclo[2.2.1]heptan-3-yl]phenyl]-5-(trifluoromethyl)pyrimidin-2-amine], in that order: 146 nM and 15.7 nM.
For `Clc1ccc(Nc2ccc([C@@H]3O[C@H]4CN[C@@H]3C4)cc2)nc1` [Example 24, 5-Chloro-N-[4-[(1R,3S,4R)-2-oxa-5-azabicyclo[2.2.1]heptan-3-yl]phenyl]pyridin-2-amine], in that order: 31.8 nM and 3.3 nM.
The corresponding values for `CCOc1ccc(C(=O)Nc2ccc([C@@H]3O[C@H]4CN[C@@H]3C4)cc2)cc1` [Example 28, 4-Ethoxy-N-[4-[(1R,3S,4R)-2-oxa-5-azabicyclo[2.2.1]heptan-3-yl]phenyl]benzamide] are 178 nM and 4.3 nM.
